Our source for the DC50 values is patent US12187816B2, “Macrocyclic compounds and methods of use thereof” (Genentech, Inc., priority 2020, dated 2025).

In general, DC50 refers to the concentration giving 50% degradation.

The target of this assay is T1, BRD4 (Homo sapiens, UniProt O60885).
T1 construct: Mean 488 intensity of BRD4 quantitated in nuclear region; endogenous in cells; host or cells: EoL-1 eosinophilic leukemia cells
Nature of the assay: BRD4 degradation assay in EOL1 cells (immunofluorescence imaging). Format: cell-based. As to conditions: EoL-1 eosinophilic leukemia cells, 4 hours treatment, nuclear BRD4 immunofluorescence. A digest of the protocol:
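EoL-1 cells treated 4 h at 37 °C with 20-point 1/3 serial dilutions (0.2% DMSO) in RPMI/10% FBS, then fixed and immunostained for BRD4. Mean nuclear BRD4 intensity measured by high-content imaging, with Hoechst nuclear masking. DMSO and no-primary-antibody controls define 0 and 100%; DC50 and maximal effect from dose-response fit.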
`Cc1sc2c(c1C)C(c1ccc(Cl)cc1)=N[C@@H](CC(=O)N(C)C[C@H]1NC(=O)CNC(=O)[C@@H](Cc3ccc(-c4ccccc4)cc3)NC(=O)[C@@H]3C[C@@H](O)CN3C(=O)[C@H](C(C)(C)C)n3cc(nn3)COCCN(C)C1=O)c1nnc(C)n1-2` [Compound 204] showed a DC50 above 20000 nM.
The figure for `Cc1sc2c(c1C)C(c1ccc(Cl)cc1)=N[C@@H](CC(=O)NC[C@H]1NC(=O)CNC(=O)[C@@H](Cc3ccc(-c4ccccc4)cc3)NC(=O)[C@@H]3C[C@@H](O)CN3C(=O)[C@H](C(C)(C)C)n3cc(nn3)COCCN(C)C1=O)c1nnc(C)n1-2` [Compound 205] is below 50 nM; for `Cc1sc2c(c1C)C(c1ccc(Cl)cc1)=N[C@@H](CC(=O)NC[C@H]1CCCNC(=O)[C@@H](Cc3ccc(-c4ccccc4)cc3)NC(=O)[C@@H]3C[C@@H](O)CN3C(=O)[C@H](C(C)(C)C)n3cc(nn3)COCCNC1=O)c1nnc(C)n1-2` [Compound 206] it is below 50 nM.
`Cc1sc2c(c1C)C(c1ccc(Cl)cc1)=N[C@@H](CC(=O)NC[C@H]1CCCNC(=O)[C@@H](Cc3ccc(-c4ccccc4)cc3)NC(=O)[C@@H]3C[C@@H](O)CN3C(=O)[C@H](C(C)(C)C)n3cc(nn3)C3(CC3)CNC1=O)c1nnc(C)n1-2` [Compound 207] came in with a DC50 below 50 nM.
Take `Cc1sc2c(c1C)C(c1ccc(Cl)cc1)=N[C@@H](CC(=O)NC[C@H]1CCCNC(=O)[C@@H](Cc3ccc(-c4ccccc4)cc3)NC(=O)[C@@H]3C[C@@H](O)CN3C(=O)[C@H](C(C)(C)C)n3cc(nn3)C3(CC3)CNC(=O)CNC1=O)c1nnc(C)n1-2` [Compound 208]: the DC50 was below 1000 nM.
